Experimental data: ChEMBL document CHEMBL6092155, “211At radiolabeled APBA-FAPI for enhanced targeted-alpha therapy of glioma” (Eur J Med Chem, 2024)
Activity calls are given as the source filed them. No cut-off for these calls is given here.

How the values were obtained:
[1] = Octanol/[…] partition coefficient, log P of the compound; assay type: physicochemical
[2] = Stability of the compound in fetal bovine serum incubated for 3 to 24 hrs by RCP analysis (Del); assay type: ADME, cell-free; conditions: cattle, time 3-24 hrs
[3] = Drug penetration in human FAPalpha-positive U-87 MG cells assessed as blood brain barrier translocation rate incubated upto 4 hrs by invitro BBB assay (reference value: 0.54+/-0.12%); assay type: ADME, cell-based; conditions: u-87mg atcc
[4] = Drug uptake in human FAPalpha-negative MCF7 cells incubated for 120 min by gamma counter analysis relative to control; assay type: ADME, cell-based; conditions: mcf7, 2 h
U-87 MG [5] = test: Antitumor activity against human U-87 MG cells xenografted in female BALB/c nude mouse model assessed as tumor growth inhibition at 0.37 MBq, iv measured after 36 days postinjection relative to control; assay type: functional, U-87MG ATCC; conditions: time 36 day
U-87 MG [6] = test: Antitumor activity against human U-87 MG cells xenografted in female BALB/c nude mouse model assessed as tumor growth inhibition at 0.74 MBq, iv measured after 36 days postinjection relative to control; assay type: functional, U-87MG ATCC; conditions: time 36 day
Albumin [7] = molecular target: T1, Albumin (Homo sapiens, UniProt P02768); test: Binding affinity to human serum albumin assessed as binding rate incubated for 30 min relative to control; assay type: ADME; conditions: isolated protein, 0.5 h
[8] = Drug uptake in human FAPalpha-positive U-87 MG cells incubated for 30 to 120 min by gamma counter analysis relative to control; assay type: ADME, cell-based; conditions: u-87mg atcc, time 30-120 min
[9] = Toxicity in female BALB/c nude mouse assessed as thyroid gland damage at 1.11 MBq, iv measured after 7 days of postinjection by H and E staining based analysis; assay type: organism-based; conditions: in vivo, 168 h, time 7 day
U-87 MG [10] = test: Antitumor activity against human U-87 MG cells xenografted in female BALB/c nude mouse model assessed as tumor growth inhibition at 1.11 MBq, iv measured after 8 days postinjection relative to control; assay type: functional, U-87MG ATCC; conditions: time 8 day
[11] = Stability of the compound in fetal bovine serum assessed as radiochemical purity (RCP) incubated for 3 to 24 hrs relative to control; assay type: ADME, cell-free, Bos taurus; conditions: cattle, time 3-24 hrs
[12] = Toxicity in female BALB/c nude mouse assessed as effect on lung at 0.37 to 1.11 MBq, iv measured after 7 days of postinjection by H and E staining based analysis; assay type: organism-based; conditions: in vivo, 168 h, dose 0.37-1.11 MBq, time 7 day
[13] = Toxicity in female BALB/c nude mouse assessed as hemoglobin indices at 0.37 to 1.11 MBq, iv measured after 7 days of postinjection by blood analysis; assay type: organism-based; conditions: in vivo, 168 h, dose 0.37-1.11 MBq, time 7 day
[14] = Toxicity in female BALB/c nude mouse model assessed as animal death at 0.74 MBq, iv measured after 38 days; assay type: organism-based; conditions: in vivo, 912 h, time 38 day
[15] = Toxicity in female BALB/c nude mouse assessed as decrease platelet count at 0.37 to 1.11 MBq, iv measured after 7 days of postinjection by blood analysis; assay type: organism-based; conditions: in vivo, 168 h, dose 0.37-1.11 MBq, time 7 day
U-87 MG [16] = test: Antitumor activity against human U-87 MG cells xenografted in female BALB/c nude mouse model assessed as tumor growth inhibition at 0.37 MBq, iv measured after 8 days postinjection relative to control; assay type: functional, U-87MG ATCC; conditions: time 8 day
U-87 MG [17] = test: Antiproliferative activity against human U-87 MG cells assessed as inhibition of cell viability at 148 KBq incubated for 12 hrs followed by replacement with fresh media and measured after 24 hrs by CCK-8 method relative to control; assay type: functional, U-87MG ATCC
[18] = Toxicity in female BALB/c nude mouse assessed as effect on kidney at 0.37 to 1.11 MBq, iv measured after 7 days of postinjection by H and E staining based analysis; assay type: organism-based; conditions: in vivo, 168 h, dose 0.37-1.11 MBq, time 7 day
U-87 MG [19] = test: Antitumor activity against human U-87 MG cells xenografted in female BALB/c nude mouse model assessed as tumor growth inhibition at 0.74 MBq, iv measured after 8 days postinjection relative to control; assay type: functional, U-87MG ATCC; conditions: time 8 day
[20] = Toxicity in female BALB/c nude mouse model assessed as animal death at 1.11 MBq, iv measured after 10 days; assay type: organism-based; conditions: in vivo, 240 h, time 10 day
Albumin [21] = molecular target: T1, Albumin; test: Binding affinity to human serum albumin assessed as decrease in HAS binding incubated for 30 mins under ibuprofen relative to control; assay type: ADME; parameters: scale not given: the % may be the effect or the level left; conditions: isolated protein, 0.5 h
[22] = Toxicity in female BALB/c nude mouse assessed as effect on liver at 0.37 to 1.11 MBq, iv measured after 7 days of postinjection by H and E staining based analysis; assay type: organism-based; conditions: in vivo, 168 h, dose 0.37-1.11 MBq, time 7 day
[23] = Drug uptake in human U-87 MG cells incubated for 120 min under FAPI-04 monomer blocking condition by gamma counter analysis relative to control; assay type: ADME, cell-based; conditions: u-87mg atcc, 2 h
[24] = Toxicity in female BALB/c nude mouse model assessed as body weight loss measured at 0.74 to 1.11 MBq, iv after 40 days of postinjection; assay type: organism-based; conditions: in vivo, 960 h, dose 0.74-1.11 MBq, time 40 day
Albumin [25] = molecular target: T1, Albumin; test: Binding affinity to human serum albumin assessed as decrease in HAS binding incubated for 30 mins under warfarin blocking relative to control; assay type: ADME; parameters: scale not given: the % may be the effect or the level left; conditions: isolated protein, 0.5 h
[26] = Toxicity in female BALB/c nude mouse assessed as effect on stomach at 0.37 to 1.11 MBq, iv measured after 7 days of postinjection by H and E staining based analysis; assay type: organism-based; conditions: in vivo, 168 h, dose 0.37-1.11 MBq, time 7 day
[27] = Toxicity in female BALB/c nude mouse assessed as red blood cell count at 0.37 to 1.11 MBq, iv measured after 7 days of postinjection by blood analysis; assay type: organism-based; conditions: in vivo, 168 h, dose 0.37-1.11 MBq, time 7 day
U-87 MG [28] = test: Antiproliferative activity against human U-87 MG cells assessed as inhibition of cell viability at 18.5 KBq incubated for 12 hrs followed by replacement with fresh media and measured after 24 hrs by CCK-8 method relative to control; assay type: functional, U-87MG ATCC
[29] = Stability of compound in PBS incubated for 3 to 24 hrs assessed as radiochemical purity (RCP) relative to control; assay type: physicochemical; conditions: buffer; time 3-24 hrs
[30] = Drug uptake in human FAPalpha-positive U-87 MG cells incubated for 120 min by gamma counter analysis relative to control; assay type: ADME, cell-based; conditions: u-87mg atcc, 2 h
[31] = Drug uptake in mouse FAPalpha-negative 4T1 cells incubated for 120 min by gamma counter analysis relative to control; assay type: ADME, cell-based; conditions: 4t1, 2 h
U-87 MG [32] = test: Antitumor activity against human U-87 MG cells xenografted in female BALB/c nude mouse model assessed as increase in survival time at 0.74 to 1.11 MBq, iv measured upto 70 days postinjection; assay type: functional, organism-based; conditions: U-87MG ATCC, dose 0.74-1.11 MBq, time <= 70.0 day, tested as the 211At-labelled form
U-87 MG [33] = test: Antitumor activity against human U-87 MG cells assessed as inhibition of cell proliferation by measuring reduction in number of Ki67 positive cells at 1.11 MBq, iv administered for 7 days by immunohistochemical analysis; assay type: functional, organism-based; conditions: U-87MG ATCC, time 7.0 day, tested as the 211At-labelled form
U-87 MG [34] = test: Antitumor activity against human U-87 MG cells assessed as induction of apoptosis in tumor tissue at 1.11 MBq, iv by TUNEL analysis; assay type: functional, organism-based; conditions: U-87MG ATCC, tested as the 211At-labelled form

T1 sequence (P02768 whole entry): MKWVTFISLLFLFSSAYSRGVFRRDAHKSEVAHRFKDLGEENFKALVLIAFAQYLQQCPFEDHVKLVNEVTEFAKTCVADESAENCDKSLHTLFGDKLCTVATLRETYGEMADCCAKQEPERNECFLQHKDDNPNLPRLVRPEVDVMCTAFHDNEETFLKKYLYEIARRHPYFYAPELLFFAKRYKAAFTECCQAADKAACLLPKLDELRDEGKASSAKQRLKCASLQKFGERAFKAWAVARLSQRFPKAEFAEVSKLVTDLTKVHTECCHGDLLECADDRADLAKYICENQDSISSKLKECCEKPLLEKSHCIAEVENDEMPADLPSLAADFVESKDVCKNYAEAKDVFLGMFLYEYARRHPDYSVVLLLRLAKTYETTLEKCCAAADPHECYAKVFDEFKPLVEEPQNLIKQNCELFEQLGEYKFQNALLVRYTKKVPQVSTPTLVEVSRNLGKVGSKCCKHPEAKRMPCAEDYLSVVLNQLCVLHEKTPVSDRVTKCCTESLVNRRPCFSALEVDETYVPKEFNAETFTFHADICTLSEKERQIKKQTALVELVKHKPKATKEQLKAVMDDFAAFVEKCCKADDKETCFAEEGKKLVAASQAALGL

N#C[C@@H]1CC(F)(F)CN1C(=O)CNC(=O)c1ccnc2ccc(OCCCN3CCN(C(=O)c4ccc([211At])cc4)CC3)cc12
logP [1]: 1.96 | Stability [2]: 71%

N#C[C@@H]1CC(F)(F)CN1C(=O)CNC(=O)c1ccnc2ccc(OCCCN3CCN(C(=O)c4ccc([131I])cc4)CC3)cc12
logP [1]: 2.12

N#C[C@@H]1CC(F)(F)CN1C(=O)CNC(=O)c1ccnc2ccc(OCCCN3CCN(C(=O)CCCc4ccc([131I])cc4)CC3)cc12
Drug uptake [3]: 3.71% | Drug uptake [4]: 7.77% | logP [1]: 2.43

N#C[C@@H]1CC(F)(F)CN1C(=O)CNC(=O)c1ccnc2ccc(OCCCN3CCN(C(=O)CCCc4ccc([211At])cc4)CC3)cc12
TGI (U-87 MG [5]): 10.46% | TGI (U-87 MG [6]): 4.2% | Activity (Albumin [7]): 7.63% | Drug uptake [8]: 40.8% | Activity [9]: Toxic | TGI (U-87 MG [10]): 94.99% | Stability [11]: 91.4% | Activity [12]: Non-toxic | Activity [13]: Non-toxic | Drug uptake [3]: 2.06% | Activity [14]: Toxic | Activity [15]: Toxic | TGI (U-87 MG [16]): 84.98% | inhibition (INH) (U-87 MG [17]): 48.58% | Activity [18]: Non-toxic | TGI (U-87 MG [19]): 92.28% | Activity [20]: Toxic | Activity (Albumin [21]): 4.01% | Activity [22]: Non-toxic | Drug uptake [23]: 12.86% | logP [1]: 2.37 | Activity [24]: Non-toxic | Activity (Albumin [25]): 3.54% | Activity [26]: Non-toxic | Activity [27]: Non-toxic | inhibition (INH) (U-87 MG [28]): 70.95% | Stability [29]: 88.17%

[211AtH]
Drug uptake [30]: 2.75% | Drug uptake [31]: 11.22%

N#C[C@@H]1CC(F)(F)CN1C(=O)CNC(=O)c1ccnc2ccc(OCCCN3CCN(C(=O)CCCc4ccc([At])cc4)CC3)cc12
Activity (U-87 MG [32]): Active | Activity (U-87 MG [33]): Active | Activity (U-87 MG [34]): Active
